According to the METLIN SMRT retention time set (Domingo-Almenara et al. 2019):

Assay: gradient 5% acetonitrile 3 min, to 50% in 2 min, to 85% in 15 min, held 3 min, 100 µL/min
Conditions: column: Zorbax Extend-C18 2.1 x 50 mm; eluents: water / acetonitrile, 0.1% formic acid
Procedure, shortened: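 Values are retention times taken from adduct peaks that software picked and an analyst inspected. The pure standards were run as mixtures of ~100 molecules on HPLC linked to a quadrupole time-of-flight mass spectrometer, in positive and negative ionization mode. A Zorbax Extend-C18 column (2.1 × 50 mm, 1.8 μm) was used at 100 μL/min with water and acetonitrile, each including 0.1% formic acid.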

| SMILES | RP-LC retention time [s] |
| --- | --- |
| O=C1CCCCC(Cc2ccccc2)(C(=O)NCc2cccc(C(F)(F)F)c2)N1 (stereo not drawn) | 893 |
| CCOC(=O)c1c(C)[nH]c(C(=O)N2CCCC(C(=O)NC3CCCCCC3)C2)c1C (stereo not drawn) | 892 |
| CCn1cnc2cc(-c3noc(-c4cc(OC)c(OC)c(OC)c4)n3)ccc21 | 732 |
| CC(C)(C)c1[nH]cnc1/C=c1\[nH]c(=O)/c(=C/c2ccccc2)[nH]c1=O | 806 |
| NC(=O)c1cnc(N[C@@H]2CCCC[C@@H]2N)nc1Nc1cccc(-n2nccn2)c1 | 654 |
| O=C(Cn1c(=O)cc(-c2nc(C3CC3)no2)c2ccccc21)NC1CCCC1 | 869 |
| CC(C)(C)CC(=O)N1CCCC(C(=O)N2CCOCC2)C1 (stereo not drawn) | 673 |
| CCn1nc(C)c(CCNC(=O)c2cc3c(=O)n(Cc4cccnc4)ccc3nc2C)c1C | 563 |
| CCOC(=O)CNC(=O)CSc1nnc(NC(=O)c2nc3ccccc3s2)s1 | 736 |
| O=C(Cn1nc2c3cc(-c4ccccc4)nn3ccn2c1=O)Nc1ccc(Br)cc1 | 947 |
| Cc1ccc(/C=C/c2nc(-c3ccc4c(c3)oc(=O)n4C(C)C)no2)o1 | 659 |
| Cc1c(C(=O)NCCN2CCCCCC2)sc2ncnc(N3CCN(C)CC3)c12 | 551 |
| CC(=O)N1CCC(c2nc(-c3ccc4c(c3)ncn4CCN3CCCC3)no2)CC1 | 553 |
| CC(C)NC[C@H](O)COc1cccc2ccccc12 | 720 |
| CN(C)c1ccc(CNS(=O)(=O)c2cc(-c3nc(C(C)(C)C)cs3)cs2)cc1 | 1100 |
| CN1C(=O)c2cccnc2Sc2cc(NC(=O)COc3ccccc3)ccc21 | 813 |
| COC(=O)c1cnc2nc(C)ccc2c1Nc1ccc(Br)cc1 | 705 |
| Cc1cc(C(=O)NCC(O)c2cccc3ccccc23)c(C)o1 (stereo not drawn) | 801 |
| CCOc1ccccc1-c1nc(-c2cn(-c3cccc(F)c3)nn2)no1 | 936 |
| CCc1ccc(NC(=O)Cc2nnc3cc(-c4nc(CC)no4)ccn23)cc1 | 826 |
| O=C(NCc1ccco1)C1CCCN(c2nccnc2Sc2ccccc2)C1 (stereo not drawn) | 880 |
| CCc1noc(NC(C)=O)c1-c1ccc(OC)c(S(=O)(=O)NCc2ccccc2C)c1 | 884 |
| O=C(Nc1ccccc1)C1CC(=O)N(c2ccc3c(c2)CCN3C(=O)C2CC2)C1 (stereo not drawn) | 743 |
| Cc1cc(C(F)F)n2nc(C(=O)Nc3ccc(C(C)C)cc3)nc2n1 | 952 |
| CCc1nc(OCC(=O)Nc2ccc(C)cc2Cl)c2ccccc2n1 | 885 |
| Cc1cc(F)ccc1NC(=O)c1nnn(-c2ccc(F)cc2)c1-c1cccnc1 | 915 |
| CCCCN1C(=O)CC2CCOC21C (stereo not drawn) | 753 |
| O=C(C1COc2ccccc2O1)N1CCCC(COCc2ccccc2)C1 (stereo not drawn) | 1030 |

| SMILES | RP-LC retention time [s] |
| --- | --- |
| O=C(Nc1nnc(SCc2ccccc2F)s1)c1ccccc1C(F)(F)F | 944 |
| Cc1ccc(OCC(=O)NCc2ccc(F)cc2)nn1 | 607 |
| O=C(Cn1nc2c(N3CCCCCC3)nccn2c1=O)Nc1cc(F)ccc1F | 731 |
| CCn1nccc1-c1cccc(-c2noc(CNC(=O)Cc3ccccc3)n2)c1 | 855 |
| Cn1nc(-c2nc(C3CC3)no2)c2c1CCN(C(=O)c1ccc(C(F)(F)F)s1)C2 | 970 |
| Fc1ccc(F)c(CNc2nnc(-c3nc(C4CC4)no3)c3ccccc23)c1 | 672 |
| Cc1sc(-c2noc(C3CCC3)n2)cc1NC(=O)c1ccc(C(F)(F)F)cc1 | 1150 |
| Cc1ccccc1C(=O)N1C[C@@H]2C[C@H]1C[C@@H]2NS(=O)(=O)c1cccs1 | 776 |
| O=C(Nc1ccc(F)cc1)C1CC(=O)N(c2n[nH]c3cccc(F)c23)C1 (stereo not drawn) | 740 |
| CCCN1CCn2cc(S(=O)(=O)Nc3cc(OC)cc(OC)c3)cc2C1=O | 744 |
| Cc1cc(NC(=O)Cc2nn(C)c(=O)c3ccccc23)ccc1Br | 856 |
| CN1C(=O)c2cc(C(=O)NCCc3ccccc3)nn2CC1(C)C(=O)NCc1ccc(F)cc1 (stereo not drawn) | 768 |
| O=C(Cc1nnc2c(-c3nc(C4CC4)no3)cccn12)NC1CCCC1 | 661 |
| CN1CCN(CCCNC(=O)C2CCN(S(=O)(=O)c3ccc4c(c3)sc(=O)n4C)CC2)CC1 | 580 |
| O=C(Nc1cc(F)cc(F)c1)C1CCN(c2cc(N3CCCC3)ncn2)CC1 | 724 |
| c1ccc(-n2nnnc2N2CCN(c3ccccn3)CC2)cc1 | 571 |
| CCN1CCN(S(=O)(=O)c2ccc(Cl)c(-c3nnc(-c4ccccc4)o3)c2)CC1 | 702 |
| CC(C(=O)N1CCCc2ccccc21)n1nc(-c2ccc3c(c2)OCCO3)ccc1=O (stereo not drawn) | 871 |
| O=C(Nc1ccccc1Cl)c1cc(C2CC2)n2nccc2n1 | 1190 |
| CC(C)Cn1cc(S(=O)(=O)N2CCc3ccccc3C2)c2cccnc21 | 784 |
| CC(C)C(=O)NCC12CCCC=C1NC(=O)CC2 (stereo not drawn) | 624 |
| COc1cccc(NC(=O)Cn2c(=O)c(CCC(=O)NCC(C)C)nc3ccccc32)c1 | 798 |
| O=C(Cn1c(=O)cc(-c2nc(C3CC3)no2)c2ccccc21)NCc1ccccc1Cl | 956 |
| COCCC(=O)Nc1cnn(-c2ncc(N3CCCCC3)cn2)c1 | 667 |
| O=C(Nc1c(-c2ccccc2)nc2ccccn12)c1ccc(Br)cc1 | 684 |
| COc1nc2ccccc2nc1N1CCCC(C(=O)NC2CCCCCC2)C1 (stereo not drawn) | 1090 |
| O=C(NC1CCCCCC1)c1nc(Nc2ccc(F)cc2)c2ccccc2n1 | 943 |

Now from value to molecule:

| RP-LC retention time [s] | SMILES |
| --- | --- |
| 977 | Cc1ccc(S(=O)(=O)N2CCC(C(=O)NCc3csc(-c4cccs4)n3)CC2)c(C)c1 |
| 762 | Cc1ccccc1CNC(=O)C1CCN(S(=O)(=O)c2cc(C(=O)N(C)C)cs2)CC1 |
| 759 | O=C1COc2ccc(S(=O)(=O)N3CCC(C(=O)Nc4ccccc4)CC3)cc2N1 |
| 931 | Cc1nnc(-c2c(S(=O)(=O)N3CCC(Cc4ccccc4)CC3)c(C)n(C)c2C)o1 |
| 742 | CCOC(=O)c1cccc(NC(=O)Nc2cccc(-c3ccc(N4CCOCC4)nn3)c2)c1 |
| 625 | CCCn1ccc2sc(C)c(C(=O)NC3CCN(Cc4ccccc4)CC3)c2c1=O |
| 908 | Cc1ccc(C)c(N2CCN(c3ccnc(SCC(=O)NCc4ccc(F)cc4)n3)CC2)c1 |
| 715 | Cc1ccc(S(=O)(=O)N2CCC(N3CC(F)(F)C[C@H]3CN(C)C)CC2)c(C)c1 |
| 735 | Cc1cc(F)ccc1NC(=O)C1CCc2nc(N3CCOCC3)ncc2C1 (stereo not drawn) |
| 728 | COc1ccc(C2CC(=O)Nc3c(C(=O)O)cn(-c4cccc(F)c4)c32)cc1OC (stereo not drawn) |
| 842 | COc1ccc(C(=O)N2CCCC(COc3ccc(C(=O)NC(C)C)cc3)C2)c(C)c1 (stereo not drawn) |
| 680 | Cc1ccc2nc(-c3ccc(C)c(NC(=O)C(C)(C)C)c3)[nH]c2c1 |
| 1040 | Cc1cc(C)n(-c2nc(-c3ccccc3)cc(=O)n2CC(=O)N2CCCc3ccccc32)n1 |
| 683 | Cc1cnc(C2CCC2)n1CC1CCN(S(=O)(=O)Cc2cccc(F)c2)C1 (stereo not drawn) |
| 632 | Cc1ccc(-c2nnc(N3CCC(C(=O)NCCN4CCCCCC4)CC3)o2)cc1 |
| 866 | Cc1ccc(-n2nc(OCC(=O)Nc3cc(F)ccc3F)ccc2=O)cc1C |
| 905 | CN(C)C(=O)C1CCN(c2nc3ccc(-c4cccc(F)c4)nc3s2)CC1 |

| RP-LC retention time [s] | SMILES |
| --- | --- |
| 655 | CCCNC(=O)C1CCN(c2ccc(SCC(=O)Nc3ccc(Cl)cc3)nn2)CC1 |
| 923 | Cc1cc2nn(CC(=O)NCc3ccco3)c(=O)n2c(Nc2ccc(C)c(F)c2)n1 |
| 866 | Cc1[nH]c(C(=O)NCc2ccccc2Cl)c(C)c1S(=O)(=O)N1CCCC1 |
| 756 | CCc1cccc(NS(=O)(=O)c2cc3n(c2)CCCN(CC)C3=O)c1 |
| 872 | O=c1n(Cc2cccc(F)c2)nc2c(S(=O)(=O)N3CCCCC3)cccn12 |
| 823 | COCC(=O)N1CCC2(CC1)Nc1ccc(C)c(C)c1-n1cccc12 |
| 676 | CCC1CCCCN1Cc1nc(Cn2ccn3nc(-c4ccccc4)cc3c2=O)no1 (stereo not drawn) |
| 1110 | COc1ccccc1N1CCN(c2cc(SCC(=O)Nc3ccccc3Cl)ncn2)CC1 |
| 610 | COCCCNC(=O)C1CCCN(c2nc3ccc(Cl)cc3[nH]2)C1 (stereo not drawn) |
| 724 | Cc1cc(C)c(C(=O)N2CCC(CC(=O)NCc3ccc4c(c3)OCO4)CC2)[nH]1 |
| 880 | COc1ccc(C2(C(=O)N3CCC(Oc4ccccc4-c4nc(C)no4)C3)CC2)cc1 (stereo not drawn) |
| 951 | Cn1ccc2cc(CCC(=O)N3CCN(c4ccc(F)cc4)CC3)ccc21 |
| 707 | CC(C)NC(=O)N(C1CC1)C1CCOC2(CCN(C(=O)c3ccco3)CC2)C1 (stereo not drawn) |
| 773 | COc1ccc(Cn2nc3c(S(=O)(=O)N4CCOCC4)cccn3c2=O)cc1F |
| 579 | CCOC(=O)c1[nH]c(C)c(C(=O)N2CCC(CC(=O)N3CCN(CC)CC3)CC2)c1C |
| 748 | COc1ncc(C(=O)Nc2cc(C)ccc2C)c(C)n1 |
